The term IC50 denotes the concentration that gives 50% inhibition. A higher IC50 goes with weaker potency in that assay.

This assay deals with Type IV PDE. Put plainly: PDE inhibitory activity, type IV isozyme (3H-cAMP hydrolysis). It is filed as biochemical. The note with it: partially purified from rat neutrophils, 30° C., 30 minutes. Here is the method: Type I, III, IV, and V PDE isozymes were prepared to study the PDE inhibitory activities and selectivities with the compound of the invention [Trends Pharmacol. Sci., 12, 19-27 (1992)]. Type I PDE was purchased from Sigma Corp. Type III, IV, and V PDE isozymes were partially purified from rats platelets (Type III and V) or neutrophils (Type IV). Each enzyme source was homogenized in a buffer (pH 6.5) containing 20 mM bisTris, 2 mM EDTA (ethylenediamine tetraacetate), 0.1 mM PMSF (phenylmethylsulfonyl fluoride), 5 mM 2-mercaptoethanol, 0.001 mM pepstatin, and 0.01 mM leupeptin and was centrifuged at 30,000×G for 30 minutes to obtain a supernatant, which was applied to an ion exchange column (Q-sepharose First Flow, Pharmacia Corp.) and was eluted with 0 to 1M sodium acetate. Partially purified isozymes were identified by observing the effects of conventional inhibitors.
Each PDE isozyme and the test compound dissolved in DMSO (dimethyl sulfoxide) were added to 50 mM Tris-HCl buffer containing 5 mM magnesium chloride. ^3 H-cAMP (for type III and IV PDE) or ^3 H-cGMP (for type I and V PDE) were added as substrates and were reacted at 30° C. for 30 minutes. The reaction was terminated by placing the test tube in boiling water of 100° C. for 5 minutes. The nucleotides formed by PDE were broken down by 5'-nucleotidase to ^3 H-adenosine or ^3 H-guanosine. The unreacted substrate and reaction product were separated through an ion-exchange column (QAE sephadex, Pharmacia Corp.) The eluted ^3 H-nucleoside was measured for its radioactivity by a liquid scintillation counter. The inhibiting activities of the compound of the present invention are shown by the IC50 value (M). Further, the inhibitory activities of the test samples against Type I, III, and V are 1/10 or less than that against type IV.
For `COc1ccc(C2(c3cccs3)CCNC(=O)O2)cc1OC1CCCC1` (stereo not shown) [Compound No. 29, 6-(3-cyclopentyloxy-4-methoxyphenyl)-6-(2-thienyl)-3,4,5,6-tetrahydro-2H-1,3-oxazin-2-one], the IC50 amounted to 3400 nM. This lies in the single-digit micromolar range.

With `COc1ccc(C2CCN(C)C(=O)O2)cc1OCC1CCCC1` (stereo not shown) [Compound No. 77, 6-(3-cyclopentylmethyloxy-4-methoxyphenyl)-3-methyl-3,4,5,6-tetrahydro-2H-1,3-oxazin-2-one], the IC50 amounted to 3300 nM. The IC50 values of the last two compounds are within 1.5-fold of each other.

The compound `CCCCOc1cc(C2(C)CCNC(=O)O2)ccc1OC` (stereo not shown) [Compound No. 52, 6-(3-butoxy-4-methoxyphenyl)-6-methyl-3,4,5,6-tetrahydro-2H-1,3-oxazin-2-one] returned an IC50 of 1400 nM.

`CCC(CC)COc1cc(C2CCNC(=O)O2)ccc1OC` (stereo not shown) [Compound No. 69, 6-[3-(2-ethylbutoxy)-4-methoxyphenyl]-3,4,5,6-tetrahydro-2H-1,3-oxazin-2-one] returned an IC50 of 5000 nM.

Turning to `COc1ccc(C2OC(=O)NCC2(C)C)cc1OC1CCCC1` (stereo not shown) [Compound No. 85, 6-(3-cyclopentyloxy-4-methoxyphenyl)-5,5-dimethyl-3,4,5,6-tetrahydro-2H-1,3-oxazin-2-one], the IC50 is 780 nM. This IC50 lies about 6.4-fold lower than the previous one.

Consider `COc1ccc(C2CCN(C)C(=O)O2)cc1OCCOCc1ccccc1` (stereo not shown) [Compound No. 84, 6-[3-(2-benzyloxyethoxy)-4-methoxyphenyl]-3-methyl-3,4,5,6-tetrahydro-2H-1,3-oxazin-2-one], for which the IC50 was 3100 nM.

Compound `COc1ccc(C2(C)CCN(C)C(=O)O2)cc1OCCc1ccccc1` (stereo not shown) [Compound No. 48, 3. 6-dimethyl-6-(4-methoxy-3-phenethyloxyphenyl)-3,4,5,6-tetrahydro-2H-1,3-oxazin-2-one] had an IC50 of 700 nM.

`COc1ccc(C2CCN(Cc3cccs3)C(=O)O2)cc1OC1CCCC1` (stereo not shown) [Compound No. 38, 6-(3-cyclopentyloxy-4-methoxyphenyl)-3-(2-thienylmethyl)-3,4.56-tetrahydro-2H-1,3-oxazin-2-one] registered an IC50 of 2200 nM.

The compound `COc1ccc(C2CCN(C)C(=O)O2)cc1OCCc1ccc(F)cc1` (stereo not shown) [Compound No. 75, 6-[3-[2-(4-fluorophenyl)ethoxy]-4-methoxyphenyl]-3-methyl-3,4,5,6-tetrahydro-2H-1,3-oxazin-2-one] yielded a half-inhibitory concentration (IC50) of 1800 nM.

Compound `COc1ccc(C2CCN(C(=O)c3ccccc3)C(=O)O2)cc1OC1CCCC1` (stereo not shown) [Compound No. 18, 3-benzoyl-6-(3-cyclopentyloxy-4-methoxyphenyl)-3,4,5,6-tetrahydro-2H-1,3-oxazin-2-one] came in with an IC50 of 410 nM.

Regarding `COc1ccc(C2CCN(Cc3ccco3)C(=O)O2)cc1OC1CCCC1` (stereo not shown) [Compound No. 35, 6-(3-cyclopentyloxy-4-methoxyphenyl)-3-(2-furylmethyl)-3,4,5,6-tetrahydro-2H-1,3-oxazin-2-one], the IC50 was 2000 nM.

Compound `COc1ccc(C2CCN(C)C(=O)O2)cc1OCCc1cccc2ccccc12` (stereo not shown) [Compound No. 68, 6-[4-methoxy-3-[2-(1-naphthyl)ethoxy]phenyl]-3-methyl-3,4,5,6-tetrahydro-2H-1,3-oxazin-2-one] registered an IC50 of 2600 nM.

`COc1ccc(C2CCNC(=O)O2)cc1OCCc1cccc2ccccc12` (stereo not shown) [Compound No. 67, 6-[4-methoxy-3-[2-(1-naphthyl)ethoxy]phenyl]-3,4,5,6-tetrahydro-2H-1,3-oxazin-2-one] showed an IC50 of 1100 nM. Against the preceding compound, the IC50 is about 2.4-fold lower.

Consider `COc1ccc([C@@H]2OC(=O)NC[C@H]2c2ccccc2)cc1OC1CCCC1` (relative stereo) [Compound No. 92, rel-(5R,6R)-6-(3-cyclopentyloxy-4-methoxyphenyl)-5-phenyl-3,4,5,6-tetrahydro-2H-1,3-oxazin-2-one], for which it took 900 nM to reach half-maximal inhibition (IC50).

In the case of `COc1ccc(C2CCN(C)C(=O)O2)cc1OCCc1ccccc1` (stereo not shown) [Compound No. 44, 6-(4-methoxy-3-phenethyloxyphenyl)-3-methyl-3,4,5,6-tetrahydro-2H-1,3-oxazin-2-one], the 50% inhibitory concentration (IC50) was found to be 1500 nM.

For the compound `COc1ccc(C2(C)CCNC(=O)O2)cc1OCCCCCc1ccccc1` (stereo not shown) [Compound No. 45, 6-[4-methoxy-3-(5-phenylpentyloxy)phenyl]-6-methyl-3,4,5,6-tetrahydro-2H-1,3-oxazin-2-one], the half-maximal inhibitory concentration (IC50) was 260 nM.

`COc1ccc(C2CCN(Cc3cccc4ccccc34)C(=O)O2)cc1OC1CCCC1` (stereo not shown) [Compound No. 13, 6-(3-cyclopentyloxy-4-methoxyphenyl)-3-(1-naphthylmethyl)-3,4,5,6-tetrahydro-2H-1 3-oxazin-2-one] displayed an IC50 of 1700 nM.

Regarding `COc1ccc(C2CCNC(=O)O2)cc1OC1CCOC1` (stereo not shown) [Compound No. 93, 6-[3-(3-tetrahydrofuryloxy)-4-methoxyphenyl]-3,4,5,6-tetrahydro-2H-1,3-oxazin-2-one], half-maximal inhibition (IC50) required 3700 nM. Against the preceding compound, the IC50 is about 2.2-fold higher.

On to `CCCCN1CCC(c2ccc(OC)c(OC3CCCC3)c2)OC1=O` (stereo not shown) [Compound No. 17, 3-butyl-6-(3-cyclopentyloxy-4-methoxyphenyl)-3,4,5,6-tetrahydro-2H-1,3-oxazin-2-one], for which the IC50 came to 2100 nM.

As to `CCCCOc1cc(C2CCNC(=O)O2)ccc1OC` (stereo not shown) [Compound No. 3, 6-(3-butoxy-4-methoxyphenyl)-3,4,5,6-tetrahydro-2H-1,3-oxazin-2-one], the IC50 was 6800 nM. Compared with the last compound, the IC50 is about 3.2-fold higher.

In the case of `COc1ccc(C2CCN(Cc3ccc4ccccc4c3)C(=O)O2)cc1OC1CCCC1` (stereo not shown) [Compound No. 15, 6-(3-cyclopentyloxy-4-methoxyphenyl)-3-(2-naphthylmethyl)-3,4,5,6-tetrahydro-2H-1,3-oxazin-2-one], the midpoint of inhibition, the IC50, lay at 980 nM.

Turning to `COc1ccc(C2CCNC(=O)O2)cc1OCCc1ccccn1` (stereo not shown) [Compound No. 55, 6-[4-methoxy-3-[2-(2-pyridyl)ethoxy]phenyl]-3,4,5,6-tetrahydro-2H-1,3-oxazin-2-one], the IC50 was found to be 1700 nM.

For `COc1ccc(C2CCN(Cc3ccc4ccccc4n3)C(=O)O2)cc1OC1CCCC1` (stereo not shown) [Compound No. 12, 6-(3-cyclopentyloxy-4-methoxyphenyl)-3-(2-quinolylmethyl)-3,4,5 6-tetrahydro-2H-1,3-oxazin-2-one], the half-inhibitory concentration (IC50) was 73 nM. This IC50 is about 23-fold lower than that of the compound before.

`CCCCC1(c2ccc(OC)c(OC3CCCC3)c2)CCNC(=O)O1` (stereo not shown) [Compound No. 30, 6-butyl-6-(3-cyclopentyloxy-4-methoxyphenyl)-3,4,5,6-tetrahydro-2H-1,3-oxazin-2-one] had a half-inhibitory concentration (IC50) of 9000 nM.

Consider `COc1ccc(C2CCN(Cc3cnccn3)C(=O)O2)cc1OC1CCCC1` (stereo not shown) [Compound No. 37, 6-(3-cyclopentyloxy-4-methoxyphenyl) -3-(2-pyrazinylmethyl)-3,4,5,6-tetrahydro-2H-1,3-oxazin-2-one], for which inhibition was half-maximal at 4500 nM (IC50).

`COc1ccc(C2OC(=O)N(C)CC2(C)C)cc1OC1Cc2ccccc2C1` (stereo not shown) [Compound No. 88, 6-[3-(2-indanyloxy)-4-methoxyphenyl]-3,5,5-trimethyl-3,4,5,6-tetrahydro-2H-1,3-oxazin-2-one] returned an IC50 of 190 nM.

Take `COc1ccc(C2CCN(C)C(=O)O2)cc1OCCCCCc1ccccc1` (stereo not shown) [Compound No. 42, 6-[4-methoxy-3-(5-phenylpentyloxy)phenyl]-3-methyl-3,4,5,6-tetrahydro-2H-1,3-oxazin-2-one]: the IC50 worked out at 1000 nM. This IC50 lies about 5.3-fold higher than the previous one.

`CCCCOc1cc(C2(C)CCN(C)C(=O)O2)ccc1OC` (stereo not shown) [Compound No. 54, 6-(3-butoxy-4-methoxyphenyl)-3,6-dimethyl-3,4,5,6-tetrahydro-2H-1,3-oxazin-2-one] returned an IC50 of 2000 nM.

`COc1ccc(C2CCN(CCN3CCCCC3)C(=O)O2)cc1OC1CCCC1` (stereo not shown) [Compound No. 32, 6-(3-cyclopentyloxy-4-methoxyphenyl) -3-[2-(1-piperidyl)ethyl]-3,4,5,6-tetrahydro-2H-1,3-oxazin-2-one] yielded an IC50 of 32000 nM.

With `CCOC(=O)CN1CCC(c2ccc(OC)c(OC3CCCC3)c2)OC1=O` (stereo not shown) [Compound No. 19, 6-(3-cyclopentyloxy-4-methoxyphenyl)-3-(ethoxycarbonylmethyl)-3,4,5,6-tetrahydro-2H-1,3-oxazin-2-one], 1800 nM corresponded to half-maximal inhibition (IC50).

With `COc1ccc(C2CCNC(=O)O2)cc1OC1(C)CCCC1` (stereo not shown) [Compound No. 80, 6-[4-methoxy-3-(1-methylcyclopentyloxy)phenyl]-3,4,5,6-tetrahydro-2H-1,3-oxazin-2-one], the IC50 worked out at 1500 nM. This IC50 and that of the compound before are within 1.5-fold of each other.

For the compound `COc1ccc(C2CCNC(=O)O2)cc1OCCOCC1CC1` (stereo not shown) [Compound No. 90, 6-[3-[2-(cyclopropylmethyloxy)ethoxy]-4-methoxyphenyl]-3,4,5,6-tetrahydro-2H-1,3-oxazin-2-one], the IC50 was found to be 1900 nM.

`COc1ccc(C2CCN(Cc3c(C)c4ccccc4n3C(C)=O)C(=O)O2)cc1OC1CCCC1` (stereo not shown) [Compound No. 34, 3-(1-acetyl-3-methyl-2-indolylmethyl)-6-(3-cyclopentyloxy-4-methoxyphenyl)-3,4,5,6-tetrahydro-2H-1,3-oxazin-2-one] registered an IC50 of 860 nM. This IC50 is about 2.2-fold lower than that of the compound before.

Turning to `COc1ccc(C2CCNC(=O)O2)cc1O[C@H]1CC[C@H](c2ccccc2)CC1` (relative stereo) [Compound No. 78, 6-[4-methoxy-3-(trans-4-phenylcyclohexyloxy)phenyl]-3,4,5,6-tetrahydro-2H-1,3-oxazin-2-one], half-maximal inhibition (IC50) required 1900 nM. Against the preceding compound, the IC50 is about 2.2-fold higher.

These data come from US6251897A, “6-phenyltetrahydro-1,3-oxazin-2-one derivative and pharmaceutical composition containing the same” (Nikken Chemicals Co., LTD, priority 1996, dated 2001).
